As usually defined, the IC50 is the concentration that inhibits the measured activity by half.

Values after ≈ are worked out from the molar mass of the structure shown.

Data set [1] has as its system AML-193 cells (acute monocytic leukemia). Nature of the data set: AML 193 cell culture assay (3H-thymidine incorporation). The data set is classed as cell-based, human. The following applies: FIG. 2. The gist of the method:
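t-RA from 1 mM ethanol stock, diluted in medium; ethanol-matched controls, subdued light. AML-193 cells (GM-CSF/insulin-dependent) at 1,000 cells/well incubated 96 h at 37 °C with retinoids, then 6 h with 1 μCi [3H]-thymidine; TCA-precipitated DNA counted by scintillation, mean dpm of triplicates ±SEM.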
For orientation: Dividing cells build labelled thymidine or BrdU into new DNA.

Data set [2] deals with retinal pigment epithelium (RPE) cells. Nature of the data set: Primary RPE culture proliferation. It is filed as cell-based, human. The following applies: FIG. 5; 10^−10 to 10^−6 M, six days treatment. How it is done: Primary cultures of human retinal pigment epithelium (RPE) were established from eyes as previously described, (Campochiaro et al., Invest. Opthal & Vis. Sci. 32:65-72 (1991)). 5×10^4 Cells were plated in 16-mm wells of 24-well multiwell plates in Dulbecco's modified Eagle's medium (DMEM Gibco) containing 10% fetal bovine serum (FBS). Cells were treated with ethanol alone (control), ATRA (10^−10 to 10^−6 M) in ethanol, and Compound 42 (10^−10 to 10^−6 M) in ethanol. Cells were fed with fresh media containing the appropriate concentrations of these compounds every two days for a total of six days treatment. Cells were removed from the plates via treatment with trypsin and the number of cells were counted with an electronic cell counter.

Data set [3] has as its system limb bud mesenchymal cells. The data set can be described thus: Chondrogenesis suppression bioassay (teratogenic potency). The data set is classed as cell-based. The following applies: read-out: IC50 (50% inhibition of chondrogenesis); mouse limb bud spot cultures, 96 hours after plating; greater IC50 signifies lesser teratogenecity. Put shortly: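 Day-12 mouse forelimb-bud mesenchymal cells were grown as high-density spot cultures in Eagle's MEM ±10% FBS, with retinoid (0.3 ng/ml–3 μg/ml, 1 nM–10 μM; ethanol vehicle ≤1%) added at 24 h. At 96 h, cultures were fixed and Alcian blue–stained (pH 1.0), and cartilage nodules were counted (four replicates) to give IC50 in ng/ml.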

Data set [4] is described as follows: Weight loss in rats treated for 3 days. It is filed as in vivo, rat. How it is done: Weight loss or gain that experimental animals experience upon administration of retinoid compounds is another test of the drug's toxicity, with significant weight loss at relatively low doses indicating a significant toxic side effect of the retinoid. In one experiment, groups of 5 rats were treated with varying doses (administered in corn oil) of a test retinoid for 3 days. The rats were euthanized 24 hours after the last dose.

Regarding `CC(C)(C)c1cc(C(=O)Nc2ccc(C(=O)O)c(F)c2)cc(C(C)(C)C)n1` [Compound 42], the “growth of AML 193 malignant cells” value in data set [1] (96 hours) was “inhibited the growth”. Moreover, the “growth of AML 193 cells at low concentrations” value in data set [1] (low concentrations) was “inhibit the malignant cell growth at low concentrations”. Besides, in data set [2], the RPE cell proliferation result was “dose dependent decrease in RPE cell proliferation”. In addition, the half-inhibitory concentration (IC50) in data set [3] came to 0.065 µg/mL (≈ 0.175 µM). For the same compound, the mucocutaneous toxicity result in data set [4] (rats, 10, 30 and 90 μmol/kg/day for 3 days) is given as “significant mucocutaneous toxicity was not observed”. Moreover, in data set [4] (rats, daily doses up to 90 μmol/kg/day in corn oil for 3 days, FIG. 6, FIG. 7), the “weight loss compared to control” value is recorded as “virtually no weight loss, as compared to the control, except in a very high dose (90 μmol/kg/day)”.

Values taken from patent US6610744B2, “Methods of treatment with compounds having RARα receptor specific or selective activity” (Allergan, Inc., priority 1995, dated 2003).
